Entries after “also recorded” stand apart in the source; their conditions may differ.
Assays:
[1] = Stability comparison between crystal forms I and II (influence factors: light, temperature, humidity); type: physicochemical; conditions: for change of purity of the compound: 10 days under light, 30° C. and 40° C., 75% RH and 90% RH
[2] = Special stability of crystal form II (grinding, heating, tableting); type: physicochemical
Text: The crystal form II of a compound of formula (I) prepared according to the method of Example 2 was subjected to grinding, heating and tableting.

Row | Structure (SMILES) | purity of the compound, 30° C. ([1]; day 0) [%] | purity of the compound, 30° C. ([1]; day 5) [%] | purity of the compound, 30° C. ([1]; day 10) [%] | purity of the compound, 30° C. ([1]; day 30) [%] | purity of the compound, 40° C. ([1]; day 0) [%] | purity of the compound, 40° C. ([1]; day 5) [%] | purity of the compound, 40° C. ([1]; day 10) [%] | purity of the compound, 40° C. ([1]; day 30) [%] | change of purity of the compound [1] | purity of the compound, Illumination ([1]; open condition, day 0) [%] | purity of the compound, Illumination ([1]; open condition, day 5) [%] | purity of the compound, Illumination ([1]; open condition, day 10) [%] | purity of the compound, Illumination ([1]; open condition, day 30) [%] | purity of the compound, RH75% ([1]; day 0) [%] | purity of the compound, RH75% ([1]; day 5) [%] | purity of the compound, RH75% ([1]; day 10) [%] | purity of the compound, RH75% ([1]; day 30) [%] | purity of the compound, RH90% ([1]; day 0) [%] | purity of the compound, RH90% ([1]; day 5) [%] | purity of the compound, RH90% ([1]; day 10) [%] | other results
1 | CCOC(=O)c1c(C#N)c(-c2ccc(Oc3c(F)cccc3F)cc2)cn1[C@@H]1CCN(C(=O)OC(C)(C)C)C1 [Crystal form II] | 99.73 | 99.72 | 99.72 | 99.67 | 99.73 | 99.68 | 99.65 | 99.60 | not obviously changed | 99.73 | 99.56 | 99.43 | 99.21 | 99.73 | 99.72 | 99.68 | 99.64 | 99.73 | 99.71 | 99.61 | purity of the compound, RH90% ([1]; day 30): 99.53%; crystal form re-tested after the influence factor experiment [1]: not changed; stability compared with crystal form I (amorphous sample) ([1]; open condition, light, high temperature and high humidity): significantly better; XRD detection (crystal form after treatment) ([2]; Grinding for 10 min in a mortar under nitrogen protection): Crystal; XRD detection (crystal form after treatment) ([2]; Tableting): Crystal; stability of the crystal form under mechanical treatment ([2]; grinding, heating and tableting (pressure)): good stability; also recorded: stable
2 | CCOC(=O)c1c(C#N)c(-c2ccc(Oc3c(F)cccc3F)cc2)cn1[C@@H]1CCN(C(=O)OC(C)(C)C)C1 [Crystal form I] | 99.31 | 99.23 | 99.10 | 98.87 | 99.31 | 99.18 | 99.05 | 95.01 | not obviously changed | 99.31 | 97.75 | 95.53 | 85.76 | 99.31 | 99.18 | 98.97 | 97.41 | 99.31 | 98.91 | 98.51 | purity of the compound, RH90% ([1]; day 30): 95.91%; crystal form re-tested after the influence factor experiment [1]: not changed

Reference: patent US11180449B2, “Crystal form of key intermediate of bruton tyrosine kinase (BTK) inhibitor and preparation method thereof” (SHANGHAI ZAIQI BIO-TECH CO., LTD., priority 2019, dated 2021)
